Patent publication US20220380341A1, “INHIBITORS OF HIV-1 NEF FOR THE TREATMENT OF HIV DISEASE” (priority 2018, published 2022)
pKd: −log10 of the molar value. Like-named read-outs stand apart in the source and are kept apart here.

What was measured:
HIV-1 NefNL4-3 = HIV-1 NefNL4-3 (Human immunodeficiency virus type 1 group M subtype B, UniProt P03406, A33V/T15A/T51N/V11I); test: Surface plasmon resonance binding to recombinant full-length Nef (NL4-3)
TZM-bl cell line = type: cell-based
How it was run: (§1)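 Read-out is luciferase from an integrated HIV-1 LTR reporter in TZM-bl cells, 48 h after HIV-1NL4-3 infection in the presence of 1 μM compound. Scale set by DMSO-treated wild-type-infected cells (0%) and Nef-defective virus (100% Nef-dependent effect). Cell Titer Blue measures cytotoxicity without virus.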

HIV-1NL4-3 = test: HIV-1 infectivity assay in TZM-bl reporter cell line (LTR-luciferase, 48 h); type: cell-based; conditions: for inhibition at 1 µM: Human immunodeficiency virus 1, TZM-bl
How it was run: as §1

[1] = 48 h, Table 1, TZM-bl cells, 1 μM, 48 h, 100% = Nef-defective HIV-1, read-out: HIV-1 Infectivity % Inhibition Norm. to Δ-Nef @ 1 μM
[2] = Nef NL4-3 Binding, SPR 2-state fitting KD, Table 1, 2-step induced-fit model
[3] = read-out: Nef NL4-3 Binding, SPR 1:1 or 2-site fitting KD2, Table 1, 2-site fit, second component

Structure (SMILES) | pKd (HIV-1 NefNL4-3) | Percent Viability @ 1 μM (TZM-bl cells) (TZM-bl cell line; human, 1 μM) | inhibition at 1 µM (HIV-1NL4-3; [1]) | pKd (HIV-1 NefNL4-3; [2]) | pKd (HIV-1 NefNL4-3; [3]) | further results
O=S(=O)(C1CCCCC1)N1CCC(c2nn(-c3nc4ccccc4[nH]3)c(O)c2CCc2ccc(F)cc2)CC1 [Compound I-747, 1-(1H-1,3-benzodiazo1-2-y1)-3-[1-(cyclohexanesulfonyl)piperidin-4-yl]-4-[2-(4-fluorophenyl)ethyl]-1H-pyrazol-5-ol] |  |  |  |  |  | Kd (HIV-1 NefNL4-3; KD, two-step induced-fit model, Reichert SPR, Table 3, read-out: Reichert SPR Nef NL43 (M) two-step fitting): 0.000257 M; pKd (HIV-1 NefNL4-3; Table 1, 1:1 Langmuir fit where the KD2 cell says '1 to 1 fitting', else 2-site fit, read-out: Nef NL4-3 Binding, SPR 1:1 or 2-site fitting KD1): 7.05; pKd (HIV-1 NefNL4-3; Table 1, 2-site fit, second component, read-out: Nef NL4-3 Binding, SPR 1:1 or 2-site fitting KD2): 5.81; pKd (HIV-1 NefNL4-3; Table 1, 2-step induced-fit model, read-out: Nef NL4-3 Binding, SPR 2-state fitting KD): 3.59; Percent Viability @ 1 μM (TZM-bl cells) (TZM-bl cell line): 86.9%; HIV Infectivity % Control @ 1 μM (HIV-1NL4-3; 1 μM, TZM-bl reporter cells, % of control): 30.9%; HIV-1 Infectivity % Inhibition Norm. to Δ-Nef @ 1 μM (HIV-1NL4-3; 1 μM, TZM-bl, normalized: DMSO wild-type HIV-1 = 0%, Nef-defective HIV-1 = 100%): 179.3%; HIV-1 Infectivity % Inhibition Norm. to Δ-Nef @ 1 μM (HIV-1NL4-3; Table 1, TZM-bl cells, 1 μM, 48 h, 100% = Nef-defective HIV-1): 179.3%
O=S(=O)(C1CC1)N1CCC(c2nn(-c3nc4ccccc4[nH]3)c(O)c2CCc2ccc(F)cc2)CC1 [Compound I-748, 1-(1H-1,3-benzodiazol-2-yl)-3-[1-(cyclopropanesulfonyl)piperidin-4-yl]-4-[2-(4-fluorophenyl)ethyl]-1H-pyrazol-5-ol] | 5.38 | 94.8% | 22.3% |  |  | 
Nc1ccc(S(=O)(=O)N2CCC(c3nn(-c4nc5ccccc5[nH]4)c(O)c3CCc3ccc(F)cc3)CC2)cc1 [Compound I-749, 3-[1-(4-aminobenzenesulfonyl)piperidin-4-yl]-1-(1H-1,3-benzodiazol-2-yl)-4-[2-(4-fluorophenyl)ethyl]-1H-pyrazol-5-ol] | 8.90 | 78.7% | 64.1% | 6.40 | 6.12 | 
CC(C)CS(=O)(=O)N1CCC(c2nn(-c3nc4ccccc4[nH]3)c(O)c2CCc2ccc(F)cc2)CC1 [Compound I-750, 1-(1H-1,3-benzodiazol-2-yl)-4-[2-(4-fluorophenyl)ethyl]-3-[1-(2-methylpropanesulfonyl)piperidin-4-yl]-1H-pyrazol-5-ol] | 9.86 | 93.0% | 63.7% | 5.94 | 9.24 | 
CC(C)S(=O)(=O)N1CCC(c2nn(-c3nc4ccccc4[nH]3)c(O)c2CCc2ccc(F)cc2)CC1 [Compound I-751, 1-(1H-1,3-benzodiazol-2-yl)-4-[2-(4-fluorophenyl)ethyl]-3-[1-(propane-2-sulfonyl)piperidin-4-yl]-1H-pyrazol-5-ol] | 6.25 | 101.1% | 22.3% |  |  | 
O=S(=O)(C1CCCC1)N1CCC(c2nn(-c3nc4ccccc4[nH]3)c(O)c2CCc2ccc(F)cc2)CC1 [Compound I-753, 1-(1H-1,3-benzodiazol-2-yl)-3-[1-(cyclopentanesulfonyl)piperidin-4-yl]-4-[2-(4-fluorophenyl)ethyl]-1H-pyrazol-5-ol] | 7.69 | 95.8% | 76.5% |  |  | 
CC(=O)N1CCCC(c2nn(-c3nc4ccccc4[nH]3)c(O)c2CCc2ccc(F)cc2)C1 (stereo not shown) [Compound I-754, 1-{3-[1-(1H-1,3-benzodiazol-2-yl)-4-[2-(4-fluorophenyl)ethyl]-5-hydroxy-1H-pyrazol-3-yl]piperidin-1-yl}ethan-1-one] | 6.32 | 97.2% | 37.4% | 10.63 | 5.14 | pKd (HIV-1 NefNL4-3; KD, M, Table 4, SPR fit 2-step induced fit, KD = koff/kon × koff2/(koff2 + kon2)): 10.63; T, minutes (residence time) (HIV-1 NefNL4-3; Table 4, 2-step induced fit, T = 1/koff2): 8.05E + 05 minutes; RU30/RUNef (extent of binding) (HIV-1 NefNL4-3; response units at 30 μM relative to Nef immobilized on the SPR chip): 5.14E- 03; % Cell Viability (TZM-bl cell line; human, 1 μM): 97.2%; inhibition at 1 µM (HIV-1NL4-3; 1.0 μM, TZM-bl reporter cell line, Table 4, read-out: % Infectivity Inhibition): 37.4%
O=C(c1cnccn1)N1CCCC(c2nn(-c3nc4ccccc4[nH]3)c(O)c2CCc2ccc(F)cc2)C1 (stereo not shown) [Compound I-756, 1-(1H-1,3-benzodiazol-2-yl)-4-[2-(4-fluorophenyl)ethyl]-3-[1-(pyrazine-2-carbonyl)piperidin-3-yl]-1H-pyrazol-5-ol] |  | 101.9% | 34.3% |  |  | Nef NL4-3 Binding, SPR 1:1 or 2-site fitting KD1 (HIV-1 NefNL4-3; Table 1, 1:1 Langmuir fit where the KD2 cell says '1 to 1 fitting', else 2-site fit): No Interaction
O=C(Cc1ccncc1)N1CCCC(c2nn(-c3nc4ccccc4[nH]3)c(O)c2CCc2ccc(F)cc2)C1 (stereo not shown) [Compound I-757, 1-{3-[1-(1H-1,3-benzodiazol-2-yl)-4-[2-(4-fluorophenyl)ethyl]-5-hydroxy-1H-pyrazol-3-yl]piperidin-1-yl}-2-(pyridin-4-yl)ethan-1-one] | 5.62 | 102.8% | 17.2% |  |  | 
